Series [1] deals with T1, human TRPV1 (Homo sapiens, UniProt Q8NER1). The series can be described thus: Capsaicin-based assay (Fluo-4 calcium fluorescence, TRPV1/CHO cells). In kind it is cell-based. On the set-up: expressed in transfected cells. On the procedure: One day prior to assay, TRPV1/CHO cells are seeded in 96-well clear-bottom black plates (20,000 cells/well) in growth media. On the day of the experiment, the cells are washed with 0.2 ml 1× Hank's Balanced Salt Solution (Life Technologies) containing 1.6 mM CaCl2 and 20 mM HEPES, pH 7.4 (“wash buffer”). Subsequently, the cells are loaded by incubation in 0.1 ml of wash buffer containing Fluo-4 at 3 µM final concentration. After 1 hour, the cells are washed twice with 0.2 ml wash buffer and resuspended in 0.1 ml wash buffer. The plates are then transferred to a Fluorescence Imaging Plate Reader (Molecular Devices). Fluorescence intensity is monitored for 15 seconds to establish a baseline. Subsequently, test compounds diluted in assay buffer (1× Hank's Balanced Salt Solution containing 1 mM CaCl2 and 20 mM HEPES, pH 7.4) containing 1% DMSO are added to the cell plate and fluorescence is monitored for 2 minutes. […] Human TRPV1 is then activated by the addition of 50 μL capsaicin (100 nM final concentration) and plates incubated for an additional 3 min. Data are collected over the entire time course and analyzed using Excel and the curve-fitting Formula GraphPad Prism.

Series [2] is described as follows: Solubility of diol compounds in aqueous solution. In kind it is physicochemical.
Series [3] has as its target T1, human TRPV1. The series can be described thus: pH-based assay (Fura-2 AM Ca2+ response to low pH, TRPV1/CHO cells).
Description: For this Protocol, a Chinese Hamster Ovary cell line (CHO) that constitutively expresses human TRPV1 is used (TRPV1/CHO cells).
TRPV1/CHO cells are seeded in the 96-well clear-bottom black-wall plate (Nunc) at densities of 1-2×10^4 cells/well and grown in 100 μL of culture medium (alpha-MEM supplemented with 10% FBS, 20 mM HEPES, 1 mg/mL geneticin and 1% antibiotic-antimycotic mixed stock solution) for 1-2 days before the experiment.
(2) The 96-well plate is incubated at 37° C. for 45 min.
(3) The loading buffer is removed from each well. […] The wells are then refilled with 80 μL of measuring buffer.
(4) After an incubation at 4° C. for 15 min, the 96-well plate is transferred to FDSS-3000 (Hamamatsu photonics, Japan).
(5) The Fura-2 fluorescent intensity is monitored at a wavelength of 340 nm and at 380 nm, respectively, at a rate of 0.5 Hz for a total of 240 seconds. After 16 time points (32 sec) of baseline detection, 20 μL of agonist solution is added to each well. […]
(6) Fluorescence intensity ratio refers to the fluorescence intensity at 340 nm over the fluorescence intensity at 380 nm at a particular time point. […]
(7) Maximal signal ratios from each well are calculated as output data using the FDSS-3000 analysis program. Data are analyzed using Excel (Microsoft) and XLfit (idbs) software. […]
(6) Fura-2 fluorescent intensity is monitored as described in 2.2.(5) of this Protocol. […]
Setting [4] is: TRPV1/CHO cells, capsaicin 100 nM final concentration, read-out: Potency, IC50(nM) Capsaicin assay.
Setting [5] is: pH 1.2, read-out: Solubility (μM) pH: 1.2.
The mark [6] stands for this setting: pH 6.8, aqueous buffer, read-out: Solubility (μM) pH: 6.8.

Values after ≈ are worked out from the molar mass of the structure shown. Read-outs that look alike come from different tables or passages of the source.

T1 sequence (Q8NER1 whole entry): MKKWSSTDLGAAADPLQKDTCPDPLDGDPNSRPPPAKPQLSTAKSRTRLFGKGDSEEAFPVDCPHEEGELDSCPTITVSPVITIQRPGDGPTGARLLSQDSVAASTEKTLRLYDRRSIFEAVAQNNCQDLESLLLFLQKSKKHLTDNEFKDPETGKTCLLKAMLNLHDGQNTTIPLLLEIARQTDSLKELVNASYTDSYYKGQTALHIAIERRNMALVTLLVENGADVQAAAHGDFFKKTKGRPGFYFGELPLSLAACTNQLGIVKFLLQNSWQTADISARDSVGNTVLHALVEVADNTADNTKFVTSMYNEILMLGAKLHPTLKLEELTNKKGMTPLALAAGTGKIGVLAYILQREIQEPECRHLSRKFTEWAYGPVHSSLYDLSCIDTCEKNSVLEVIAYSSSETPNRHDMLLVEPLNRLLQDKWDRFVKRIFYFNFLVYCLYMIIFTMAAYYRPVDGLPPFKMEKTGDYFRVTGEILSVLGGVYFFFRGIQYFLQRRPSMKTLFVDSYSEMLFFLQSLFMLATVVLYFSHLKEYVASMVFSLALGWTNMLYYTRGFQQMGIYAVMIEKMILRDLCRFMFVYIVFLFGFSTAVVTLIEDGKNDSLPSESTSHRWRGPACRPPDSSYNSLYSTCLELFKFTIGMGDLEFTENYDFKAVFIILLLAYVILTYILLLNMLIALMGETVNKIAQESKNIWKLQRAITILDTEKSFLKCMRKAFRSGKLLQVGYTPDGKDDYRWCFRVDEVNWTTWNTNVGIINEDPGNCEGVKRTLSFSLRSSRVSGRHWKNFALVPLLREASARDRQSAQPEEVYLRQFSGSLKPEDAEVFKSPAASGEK

Take `O=C(Nc1nc2ccc(F)cc2s1)C1=CCN(c2ncc([C@H](O)CO)cc2F)CC1` [Compound I5, (S)-1-(5-(1,2-dihydroxyethyl)-3-fluoropyridin-2-yl)-N-(6-fluorobenzo[d]thiazol-2-yl)-1,2,3,6-tetrahydropyridine-4-carboxamide]: the IC50 (commonly the concentration that inhibits the measured activity by half) at human TRPV1 [1] (setting [4]) is 35.6 ± 5.1 nM. The solubility – broadly, how much of the substance goes into solution per volume – in series [2] (setting [5]) amounted to 46 µM (≈ 19.9 µg/mL); in series [2] (setting [6]) it was 1 µM (≈ 0.432 µg/mL).
On to `O=C(Nc1ccc(C(F)(F)F)cn1)C1=CCN(c2ncc([C@H](O)CO)cc2F)CC1` [Compound E2], for which the IC50 on human TRPV1 [1] (setting [4]) is 45.9 ± 4.2 nM. Further, the results for the solubility in series [2] (setting [5]) and in series [2] (setting [6]) were > 50 µM and 25 µM (≈ 10.7 µg/mL), respectively.
With `O=C(Nc1ccc(C(F)(F)F)cn1)C1=CCN(c2ncc([C@@H](O)CO)cc2F)CC1` [Compound F2], on human TRPV1 [1] (setting [4]), the IC50 came out at 109 ± 25.5 nM. Besides, the solubility in series [2] (setting [5]) was > 50 µM; in series [2] (setting [6]), 21 µM (≈ 8.95 µg/mL).
As to `O=C(Nc1ccc(C(F)(F)F)cc1)C1=CCN(c2ncc([C@@H](O)CO)cc2F)CC1` [Compound B14], the IC50 stood at 14.7 ± 1.01 nM against human TRPV1 [3] and 29.4 ± 6.3 nM at human TRPV1 [1].
In the case of `O=C(Nc1ccc(C(F)(F)F)cc1)C1=CCN(c2ncc([C@H](O)CO)cc2F)CC1` [Compound A14], the IC50 on human TRPV1 [3] was 9.5 ± 2.5 nM; on human TRPV1 [1], 23.8 ± 6.2 nM. Moreover, the results for the solubility in series [2] (setting [5]) and in series [2] (setting [6]) were > 50 µM and 19 µM (≈ 8.08 µg/mL), respectively.
